Experimental data as given in EP3098228A1, “POLYOXOMOLYBDATE-BISPHOSPHONATE COMPLEX CONTAINING A HETEROMETALLIC ION DIFFERENT FROM MOLYBDENUM” (CENTRE NATIONAL DE LA RECHERCHE SCIENTIFIQUE, priority 2015, dated 2016).
Read-outs that look alike come from different tables or passages of the source.

Tests used:
[1] = tested on: Human tumor cell lines MCF-7 (breast adenocarcinoma); assay: Cell-growth inhibition assay (MTT cell proliferation assay, 4 days); assay type: cell-based; conditions: MCF-7, 4 days incubation
Procedure: Cells were plated at a density of 5000 cells/well.
Results are gathered in table 3 hereinafter. The results are shown on a molar basis (IC50 values, in µM) as well as on a per-bisphosphonate basis, which is more logical when comparisons are to be made with the pure bisphosphonates.

[2] = tested on: MCF-7; conditions: literature values, cited from earlier work
[3] = tested on: MCF-7; assay: Cell growth "rescue" experiments with geranylgeraniol (GGOH); assay type: cell-based, Human
Procedure: Addition of geranylgeraniol (GGOH) was tested on Mo4Zol2Mn.
Protocol Cell growth "rescue" experiments with geranylgeraniol were carried out as described previously, and namely in Y. Zhang, et al J. Am. Chem. Soc. 2009, 131, 51.
An increase in the IC50 indicates a direct role for the bisphosphonate moiety in cell growth inhibition.

[4] = Solubility in water (remark in the solid state NMR section); assay type: physicochemical
From the text: The broadening could be due either to the low crystallinity in Mo12(AlePy)4Pt4 and/or, a dynamic disorder, since we also observe a much less efficient CP transfer in CPMAS experiments when compared with Mo12(AlePy)4.

[5] = measurement conditions not strictly identical to Table 3, read-out: IC50
[6] = per bisphosphonate, read-out: IC50 per BP

O=P(O)(O)C(O)(Cn1ccnc1)P(=O)(O)O [Zol, zoledronate]
IC50 ([1]; Homo sapiens, MCF7, 96 h, molar basis, read-out: IC50): 15 ± 2.6 µM
IC50 ([1]; Homo sapiens, MCF7, 96 h, per-bisphosphonate basis, read-out: IC50 per BP): 15 ± 2.6 µM
IC50 [2, 5]: 7.7 ± 2.6 µM
IC50 [2, 6]: 7.7 µM
IC50 ([3]; Homo sapiens, MCF7, with addition of geranylgeraniol (GGOH), read-out: IC50 +GGOH): 48 µM
IC50 ([3]; Homo sapiens, MCF7, without GGOH, read-out: IC50): 15 µM

Rb(NH4)4[(Mo2O6)2(O3PC(CH2C3H4N2)(O)PO3)2Mn].14H2O [Mo4Zol2Mn]
IC50 ([1]; molar basis, read-out: IC50): 1.3 ± 0.24 µM
IC50 ([1]; per-bisphosphonate basis, read-out: IC50 per BP): 2.6 ± 0.48 µM
IC50 ([3]; with addition of geranylgeraniol (GGOH), read-out: IC50 +GGOH): 7.6 µM
IC50 ([3]; without GGOH, read-out: IC50): 1.3 µM

[Cl][Mn][Cl] [MnCl2]
IC50 ([1]; molar basis, listed as Mn(II)Cl2, read-out: IC50): ~740 µM
IC50 ([1]; molar basis, read-out: IC50): 740 ± 140 µM

NCCCC(O)(P(=O)(O)O)P(=O)(O)O [Ale, alendronate]
IC50 [2, 5]: 130 ± 2.2 µM
IC50 [2, 6]: 130 µM

Na3{Na(Mo3O8)4[O3PCC3H6NH2CH2(C5H5N)(O)PO3]4} .25H20 [Mo12(AlePy)4]
solubility in water [4]: essentially insoluble in water
